Experimental data reported in patent publication US9011853B2, “B7-H4 fusion proteins and methods of use thereof” (Amplimmune, Inc., priority 2009, dated 2015).

Tests used:
[1] = system: DBA/1J mice; assay: Collagen-induced arthritis (CIA) prophylactic model, arthritis score; type: in vivo, mouse; conditions: 0.5 mg (20 mg/kg) IP from day of CII immunization, 2 times each week up to 6 weeks; days 33 and beyond; vs vehicle (FIG. 3)
Description: CIA is a well-characterized mouse model for human RA, in which injection of collagen II (CII) into DBA/1J mice induces swelling and progressive inflammation in joints resulting in arthritis. […] B7-H4-Ig treatment continued 2 times each week, up to 6 weeks. On day 21, mice were rechallenged with CII emulsified in IFA. FIG. 2 outlines a brief experimental design. Day 40 was the last B7-H4-Ig treatment.

[2] = system: CD4^+CD62L^+ naïve T cells; assay: In vitro induction of iTreg cells, FACS for FoxP3/CD25; type: cell-based, mouse; conditions: SJL naïve T cells, 10 ng/mL TGF-β and 50 U/mL IL-2; 0, 1, 5 or 10 μg/mL (control IgG 10 μg/ml)
Experimental: CD4^+CD62L^+ naïve T cells were first labeled with CFSE (5 μM) for 10 min at room temperature. The dye was quenched by the addition of 0.5 volumes of ice-cold fetal calf serum. The cells were incubated on ice for 5 min followed by centrifugation to collect the cell pellet. The cells were washed 2 more times in HL-1 culture media. The cells were then cultured in the presence of TGF-β (10 ng/mL) and IL-2 (10, 50, 100 U/mL) for 3 days before intracellular staining with anti-FoxP3 APC. FACS analysis was conducted to detect the FoxP3^+, in vitro expanded iTreg cells.
Therefore, it was next examined if B7-H4-Ig treatment of naïve CD4^+CD62L^+ T cells in the presence of inducible Treg (iTreg) cell-promoting conditions would results in an increase in the numbers of CD4^+CD25^+FoxP3^+ iTreg cells. First the in vitro iTreg induction culture conditions were optimized to allow for experimental conditions to assess what additional effect, if any, B7-H4-Ig has on iTreg induction. CD4^+ T cells were isolated from female SJL mice. Purified mouse CD4^+CD62L^+ T cells were first labeled with CSFE and induced to iTreg cells in the presence of TGF-β (10 ng/mL) and IL-2 at concentrations of 0, 50 or 100 U/mL. FACS analysis was performed 3 days later to detect FoxP3 expression and CFSE content. A FoxP3 positive and CFSE diluted cell population was detected when using 100 U/mL of IL-2 for iTreg differentiation. […]

[3] = system: CD4^+CD25^− T cells; assay: Enteroantigen specific CD4+CD25- proliferation assay with cells from treated mice; type: in vivo, mouse; conditions: Balb/c mice
Experimental: Extracts were prepared by removing the colon and cecum from mice and placing the content in PBS. This was sonicated 3 times for 30 seconds on ice, followed by centrifugation at 10,000 g for 10 min to remove insoluble material. The supernatant was collected, sterile filtered, and stored at −60° C. The protein concentration in the supernatants was typically 1 to 1.5 mg/mL as determined by the bicinchoninic acid (BCA) method.
Female wild-type Balb/c, 7 to 9 weeks of age, were injected with either 60 μg or 300 μg of B7-H4-Ig, intraperitoneally (IP), 3 times a week for 2 weeks. There were 5 mice in each group. B7-H4-Ig treated mice and also naïve control mice were euthanized for T cell isolation after 2 week treatment.
The CD4^+CD25^− T cells were obtained as follows: CD4^+ T cells were positively selected from spleen single-cell suspensions using a mouse anti-CD4 monoclonal antibody-coated DYNABEAD® and the DETACHABEAD® system (Dynal AS, Oslo, Norway) according to the manufacturer's instructions. Then the CD4^+ T cells ([…] assessed by flow cytometry) were separated into CD25^+ and CD25^− T cell populations by Miltenyi's magnetic bead technology (MACS®, Miltenyi Biotech, Belgisch Gladbach, Germany) using PE-labeled anti-CD25 monoclonal antibody, followed by the addition of anti-PE microbeads and depletion according to the manufacturer's instructions. […]

[4] = system: mRNAs associated with Th17 cells, Tregs, autoimmune disorders and inflammation; assay: Quantitative RT-PCR of mouse naïve T cells under Th17 differentiation cocktail; type: cell-based; conditions: 1 μg/mL, vs isotype control (Table 13, FIG. 54)
Experimental: CD4^+CD62L^+ naïve T cells were isolated from BALB/c mice as in the above examples, and activated by anti-CD3 and anti-CD28 bound beads in the presence of Th17 differntiation cocktail (TGF-β1 (10 ng/mL), IL-6 (50 ng/mL), IL-23 (4 ng/mL), anti-IL-4 (10 μg/mL), anti-IFN-γ (5 μg/mL) and anti-IL-2 (5 μg/mL)). Cells were incubated with either B7-H4-Ig (two different lots—#22 and #23—at 1 μg/mL) or isotype control. RNA was isolated from the cells and used for quantitative RT-PCR to test the expression levels of a large number of mRNAs associated with Th17 cells, Tregs, autoimmune disorders and inflammation (SA Biosciences mouse Th17 panel).

B7-H4-Ig: B7-H4 extracellular domain fused to Ig Fc; bare label is the human protein in Example 3, murine protein in Examples 1, 2, 5, 7-11
overall arthritis scores [1]: significantly lower than the scores for vehicle-injected CIA mice | percentage of FoxP3+CD25+ iTregs [2]: increased the percentage of FoxP3^+CD25^+ iTregs in a dose-dependent manner | enteroantigen specific CD4+CD25− T effector cell response ([3]; 60 μg or 300 μg IP 3 times a week for 2 weeks (FIG. 52)): barely affected | Tregs from treated mice: blocking of enteroantigen priming and T cell proliferation ([3]; 60 μg or 300 μg IP 3 times a week for 2 weeks, vs Tregs from control mice (FIG. 51)): more potent in blocking enteroantigen priming and T cell proliferation | expression of mRNA involved in Th17 cell differentiation (RORc, IL-17A, IL-17F, IL-21, IL-22) [4]: downregulates the expression of mRNA involved in Th17 cell differentiation
